In the NIST ThermoML archive (doi:10.1021/je034177v):

Experiment: molar heat capacity at constant pressure; xn = mol fraction of the nth substance listed
Conditions: 101 kPa, Liquid, Small sample (50 mg) DSC

ClCCCCCCl [1,5-dichloropentane] + CCCCCCCCCCCC
molar heat capacity at constant pressure [J/K/mol]
Conditions	283.15 K	288.15 K	293.15 K	298.15 K	303.15 K	308.15 K	313.15 K	318.15 K	323.15 K
x1 = 0.05237	359.49	361.46	363.6	365.89	368.28	370.79	373.41	376.07	378.83
x1 = 0.1014	351.13	353.16	355.31	357.53	359.81	362.28	364.84	367.48	370.16
x1 = 0.2008	334.84	336.79	338.81	340.93	343.08	345.47	347.87	350.35	352.88
x1 = 0.3039	318.47	320.33	322.17	324.17	326.18	328.38	330.63	332.93	335.27
x1 = 0.3945	304.32	305.98	307.85	309.6	311.52	313.55	315.68	317.86	320.07
x1 = 0.4983	288.13	289.64	291.34	293.02	294.78	296.69	298.58	300.38	302.59
x1 = 0.6014	271.74	273.2	274.79	276.35	277.97	279.71	281.49	283.32	285.18
x1 = 0.6987	256.4	257.78	259.23	260.76	262.21	263.83	265.47	267.13	268.85
x1 = 0.7975	240.83	242.08	243.45	244.78	246.18	247.69	249.17	250.73	252.27
x1 = 0.9021	224.47	225.7	226.92	228.16	229.39	230.74	232.08	233.47	234.85
x1 = 0.9497	217.25	218.41	219.54	220.73	221.9	223.14	224.4	225.7	227.02
x1 = 1	209.65	210.73	211.89	212.94	214.06	215.21	216.38	217.56	218.76

ClCCCCCCCl [1,6-dichlorohexane] + CCCCCCCCCCCC
molar heat capacity at constant pressure [J/K/mol]
Conditions	283.15 K	288.15 K	293.15 K	298.15 K	303.15 K	308.15 K	313.15 K	318.15 K	323.15 K
x1 = 0.0498	361.24	363.25	365.49	367.75	370.17	372.73	375.36	378.07	380.85
x1 = 0.1003	354.21	356.2	358.37	360.64	363.07	365.53	368.13	370.69	373.37
x1 = 0.1497	347.4	349.35	351.58	353.74	356.06	358.52	361.02	363.62	366.28
x1 = 0.2527	333.57	335.52	337.63	339.74	341.93	344.27	346.63	349.13	351.62
x1 = 0.4017	314.16	315.92	317.89	319.79	321.84	323.95	326.16	328.4	330.71
x1 = 0.502	301.12	302.83	304.61	306.46	308.39	310.38	312.43	314.57	316.72
x1 = 0.6	288.34	289.93	291.62	293.38	295.19	297.07	299.01	300.97	303.01
x1 = 0.7011	275.07	276.6	278.22	279.86	281.55	283.34	285.15	287	288.89
x1 = 0.7986	262.36	263.83	265.4	266.9	268.5	270.16	271.87	273.6	275.38
x1 = 0.8998	249.37	250.76	252.22	253.67	255.12	256.63	258.18	259.77	261.42
x1 = 0.9493	242.86	244.24	245.67	247.09	248.51	249.99	251.5	253.03	254.57
x1 = 0.9691	240.39	241.75	243.14	244.52	245.9	247.38	248.85	250.37	251.9
x1 = 1	236.59	237.9	239.26	240.6	241.94	243.37	244.81	246.28	247.76
